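Compound exposure: 48 hours, 5 concentrations, 96-well plates. TGI is the concentration that stops growth completely.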 A value given as a limit tells only on which side of the number the result lay.

Among the test systems are CAKI-1 renal; HOP-62 NSCLC; MDA-N; OVCAR-8 ovarian; MDA-MB-231 breast; SK-MEL-5 melanoma; SF-268 CNS; SF-295 CNS; ACHN renal; HOP-92 NSCLC.
What all share (assay): growth of human tumour cells (NCI), 48 h

As for `N#Cc1sc2c(c1OC(=O)c1ccco1)c(=O)n(-c1ccccc1)c(=S)n2-c1ccccc1`, the TGI in the test on CAKI-1 renal is over 100 µM; in the test with HOP-62 NSCLC, over 100 µM; in the test with MDA-N, 47.1 µM; in the test on OVCAR-8 ovarian, over 100 µM; in the test on MDA-MB-231 breast it was 73.8 µM; in the test on SK-MEL-5 melanoma it was 33.7 µM. Besides, the TGI in the test with SF-268 CNS and with SF-295 CNS was over 100 µM each time.

In the case of `CCn1c(CCCc2nc3c([nH]2)c(=O)n(C)c(=O)n3C)nc2c1c(=O)n(C)c(=O)n2C`, the TGI in the test with CAKI-1 renal, in the test with HOP-62 NSCLC, in the test on ACHN renal, in the test on MDA-N, with OVCAR-8 ovarian and in the test with MDA-MB-231 breast was over 100 µM throughout. For the same compound, the TGI was 27.8 µM in the test with SK-MEL-5 melanoma, over 100 µM in the test with SF-268 CNS and over 100 µM in the test on SF-295 CNS.

As for `COc1cc(C2c3cccc4cccc(c34)C3CCC(=O)N32)cc(OC)c1O` (stereo not given), the TGI with HOP-92 NSCLC, in the test with HOP-62 NSCLC, in the test with ACHN renal, in the test on MDA-N, with OVCAR-8 ovarian and with SF-295 CNS was over 50 µM throughout.

`O=[N+]([O-])c1c(O)c2nonc2c2nn(-c3ccccc3)nc12`: the TGI in the test with CAKI-1 renal, with HOP-92 NSCLC, with HOP-62 NSCLC, in the test on ACHN renal, in the test with MDA-N and in the test with OVCAR-8 ovarian was over 100 µM throughout. The TGI in the test with SK-MEL-5 melanoma, with SF-268 CNS and in the test on SF-295 CNS was over 100 µM throughout.

Take `C=C(C)C1(Sc2ccc(OC)cc2)CC1`: the TGI in the test on CAKI-1 renal, in the test on HOP-62 NSCLC, with ACHN renal, with MDA-N, in the test with OVCAR-8 ovarian and with MDA-MB-231 breast was over 100 µM in each case. Moreover, the figures for the TGI in the test on SK-MEL-5 melanoma, with SF-268 CNS and in the test on SF-295 CNS were 31.6 µM, 67 µM and 71 µM, respectively.

In the case of `COc1cc(C(c2ccccc2)N2C(=O)CC[C@H]2C(=O)O)cc(OC)c1OC` (stereo not given in full), the TGI with CAKI-1 renal, in the test on HOP-92 NSCLC, in the test with HOP-62 NSCLC, with ACHN renal, with MDA-N and in the test on OVCAR-8 ovarian was over 100 µM each time. Besides, the TGI with SK-MEL-5 melanoma, in the test on SF-268 CNS and with SF-295 CNS was over 100 µM throughout.

For `Cc1nc(N)c(N2CCN(S(=O)(=O)N(Cc3ccccc3)Cc3ccccc3)CC2)c(=O)[nH]1`, the TGI in the test with HOP-62 NSCLC was 83.5 µM; with ACHN renal it was 85.1 µM; with MDA-N, over 100 µM; in the test with OVCAR-8 ovarian it was over 100 µM; in the test on MDA-MB-231 breast it was over 100 µM; in the test with SF-268 CNS, 73.5 µM. The TGI in the test with SF-295 CNS came out at 65.8 µM.

On to `O=C(O)C(Cc1ccccc1)Cc1ccccc1`, for which the TGI in the test with CAKI-1 renal, in the test on HOP-62 NSCLC, in the test with ACHN renal, in the test on MDA-N, in the test on OVCAR-8 ovarian and in the test on MDA-MB-231 breast was over 100 µM each time. For the same compound, the TGI in the test with SK-MEL-5 melanoma, in the test on SF-268 CNS and in the test on SF-295 CNS was over 100 µM throughout.

Take `O=C(CCCCCNC(=O)c1ccc(Cl)cc1)NO`: the TGI was 21.1 µM in the test on CAKI-1 renal; 11.1 µM with HOP-92 NSCLC; 41.6 µM in the test with ACHN renal; 10.8 µM with MDA-N; 86.8 µM with OVCAR-8 ovarian; 21 µM in the test with MDA-MB-231 breast. The values for the TGI in the test with SK-MEL-5 melanoma, with SF-268 CNS and in the test on SF-295 CNS were 13.9 µM, 57.1 µM and 36.1 µM, respectively.

As for `COc1cc2nc(-c3cccs3)nc(N3CCN(c4ccccc4)CC3)c2cc1OC`, the TGI with CAKI-1 renal, in the test on HOP-92 NSCLC, in the test on HOP-62 NSCLC, in the test with ACHN renal, in the test with OVCAR-8 ovarian and with MDA-MB-231 breast was over 100 µM throughout. Also, the TGI in the test with SK-MEL-5 melanoma, in the test on SF-268 CNS and in the test with SF-295 CNS was over 100 µM in each case.

`O=c1c(O)c(-c2ccccc2)oc2c(CP(=O)(O)O)cccc12`: the TGI in the test with CAKI-1 renal, in the test with HOP-62 NSCLC, with MDA-N, in the test on MDA-MB-231 breast, in the test with SK-MEL-5 melanoma and in the test with SF-295 CNS was over 100 µM in each case.

With `N#CCCN(CCCCN(CCC#N)C(=O)Nc1ccccc1)C(=O)Nc1ccccc1`, the TGI with CAKI-1 renal, with HOP-62 NSCLC, in the test with ACHN renal, in the test on MDA-N, in the test with OVCAR-8 ovarian and in the test with MDA-MB-231 breast was over 100 µM each time. The TGI in the test with SK-MEL-5 melanoma, with SF-268 CNS and in the test with SF-295 CNS was over 100 µM throughout.

Take `O=S(=O)(O)c1ccc(O)c(N=Nc2c(O)ccc3ccccc23)c1`: the TGI in the test on CAKI-1 renal, in the test on HOP-92 NSCLC, in the test with HOP-62 NSCLC, in the test on MDA-N, in the test on OVCAR-8 ovarian and with MDA-MB-231 breast was over 100 µM each time. Besides, the TGI with SK-MEL-5 melanoma, with SF-268 CNS and in the test with SF-295 CNS was over 100 µM each time.

Regarding `CCCN=C1NC(C)=CSC(Nc2ccccc2)=C1C#N`, the TGI with CAKI-1 renal, in the test on HOP-62 NSCLC, in the test with ACHN renal, in the test with MDA-N, with OVCAR-8 ovarian and with MDA-MB-231 breast was over 100 µM throughout. Further, the TGI in the test with SK-MEL-5 melanoma, with SF-268 CNS and with SF-295 CNS was over 100 µM each time.

In the case of `COc1ccc(NC(=O)CSC(=O)c2ccccc2)c(SCCSSCCSc2cc(OC)ccc2NC(=O)CSC(=O)c2ccccc2)c1`, the TGI in the test with CAKI-1 renal, in the test on HOP-92 NSCLC, in the test with HOP-62 NSCLC, in the test on ACHN renal, in the test on MDA-N and in the test on OVCAR-8 ovarian was over 100 µM each time. In addition, the TGI in the test on SK-MEL-5 melanoma, with SF-268 CNS and with SF-295 CNS was over 100 µM in each case.

`Oc1ccc(-c2nc3cc(C(F)(F)F)ccc3s2)cc1`: the TGI in the test on CAKI-1 renal was 29.1 µM; in the test on ACHN renal it was 27.6 µM; in the test with MDA-N, 32.7 µM; with OVCAR-8 ovarian, 29.4 µM; in the test on MDA-MB-231 breast it was 31 µM; in the test on SK-MEL-5 melanoma, 30 µM. Besides, the TGI with SF-268 CNS was found to be 30.8 µM; with SF-295 CNS, 28.2 µM.

Take `CC1CN(c2cc3c(cc2F)c(=O)c(C(=O)O)cn3-c2ccc(N3CCN(C)CC3)cn2)CC(C)N1` (stereo not given): the TGI in the test on CAKI-1 renal, with HOP-92 NSCLC, in the test with HOP-62 NSCLC, in the test on MDA-N, in the test with OVCAR-8 ovarian and in the test on MDA-MB-231 breast was over 100 µM each time. Further, the TGI in the test with SF-268 CNS and in the test with SF-295 CNS was over 100 µM throughout.

For the compound `CCCCCCc1ccc(CCCCCCCC(=O)O)o1`, the TGI in the test with CAKI-1 renal, with HOP-92 NSCLC, in the test on HOP-62 NSCLC, in the test on ACHN renal, in the test with MDA-N and with OVCAR-8 ovarian was over 100 µM each time. Besides, the TGI in the test with SK-MEL-5 melanoma and in the test on SF-295 CNS was over 100 µM in each case.

Regarding `COP(=O)(CP(=O)(OC)OCCC(C)CCC=C(C)C)OC` (stereo not given), the TGI in the test with CAKI-1 renal was over 100 µM; with HOP-62 NSCLC, over 100 µM; with ACHN renal, over 100 µM; in the test with MDA-N, over 100 µM; in the test on OVCAR-8 ovarian, over 100 µM; with MDA-MB-231 breast it was 44.7 µM. Further, the TGI in the test with SK-MEL-5 melanoma, in the test with SF-268 CNS and in the test with SF-295 CNS was over 100 µM throughout.

Regarding `CCSC12OC3(CCCCCN3C1=O)C1C(=O)N(c3ccccc3)C(=O)C12` (stereo not given), the TGI in the test with CAKI-1 renal, with HOP-92 NSCLC, in the test on ACHN renal, in the test with MDA-N, in the test on OVCAR-8 ovarian and with MDA-MB-231 breast was over 100 µM in each case. In addition, the TGI in the test with SK-MEL-5 melanoma, in the test with SF-268 CNS and in the test with SF-295 CNS was over 100 µM throughout.

For `N=C(N)SCc1nc(-c2ccc(Cl)cc2)no1`, the TGI in the test with CAKI-1 renal was 27.4 µM; in the test on HOP-92 NSCLC it was 77.6 µM; with HOP-62 NSCLC it was over 100 µM; with ACHN renal it was 27.5 µM; in the test on OVCAR-8 ovarian, over 100 µM; with MDA-MB-231 breast, 35.9 µM. For the same compound, the TGI in the test with SK-MEL-5 melanoma, with SF-268 CNS and in the test on SF-295 CNS was over 100 µM in each case.

For `COC(=O)/C=C1\C(CO[Si](C)(C)C(C)(C)C)OC(n2cc(C)c(=O)n(C)c2=O)C1O[Si](C)(C)C(C)(C)C` (stereo not given), the TGI with HOP-92 NSCLC, in the test on HOP-62 NSCLC, in the test on ACHN renal, in the test on MDA-N, in the test with OVCAR-8 ovarian and in the test on MDA-MB-231 breast was over 100 µM each time. Also, the TGI in the test with SK-MEL-5 melanoma, in the test with SF-268 CNS and with SF-295 CNS was over 100 µM throughout.

Regarding `C=CC(=O)N1C/C(=C\c2ccc(OC)cc2)C(=O)/C(=C/c2ccc(OC)cc2)C1`, the TGI with CAKI-1 renal was 11.7 µM; in the test with HOP-92 NSCLC, 27 µM; in the test with HOP-62 NSCLC, 11.2 µM; with ACHN renal, 3.47 µM; in the test with OVCAR-8 ovarian, over 24.2 µM; in the test with MDA-MB-231 breast it was 7.98 µM. Moreover, the TGI in the test with SK-MEL-5 melanoma was over 20.4 µM; with SF-268 CNS, 17.1 µM; with SF-295 CNS it was 6.98 µM.

The values are drawn from PubChem BioAssay (NCI).
